Tested on: collagen-induced platelet aggregation
Experiment: Inhibition of collagen-induced platelet aggregation ex vivo
Format: in vivo, humans
Conditions: collagen 5 μg/ml; citrated platelet-rich plasma (PRPc), aggregometer; oral administration to 18 volunteers; compound A 10 mg, clopidogrel 75 mg
Description: Measurement of the Inhibition of Collagen-Induced Platelet Aggregation:
10 mg of compound A and 75 mg of clopidogrel were administered orally for three days to 18 volunteers previously treated with 75 mg of clopidogrel for 7 days. The effect of the association of compound A and clopidogrel was compared with the effects of compound A and clopidogrel administered separately.
In the course of the test, the percentage inhibition of platelet aggregation ex vivo induced by collagen (5 μg/ml) was calculated by measuring the platelet aggregation on citrated platelet-rich plasma (PRPc) with the aid of an aggregometer.

COC(=O)[C@H](c1ccccc1Cl)N1CCc2sccc2C1 [clopidogrel]
percentage inhibition of platelet aggregation ex vivo induced by collagen: 11%
